Results published in patent publication US7750017B2, “Heterocycles” (Bayer Schering Pharma Aktiengesellschaft, priority 2004, dated 2010).

Assays:
[1] = system: BT474 [human breast carcinoma, overexpressing HER2 (ErbB2)]; experiment: In vitro tumor cell proliferation assay (Cell Titer-Glo luminescent cell viability), BT474 cells; type: cell-based; details: BT-474, 72 h, 72 hours of drug exposure, Cell Titer-Glo readout, read-out: IC50, anti-proliferative activity in BT474 cells
Text: (§1) The utility of the compounds of the present invention can be illustrated, for example, by their activity in vitro in the in vitro tumor cell proliferation assay described below. The link between activity in tumor cell proliferation assays in vitro and anti-tumor activity in the clinical setting has been very well established in the art.
(§2) The following assay is one of the methods by which compound activity relating to treatment of the disorders identified herein can be determined.
(§3) The tumor cell proliferation assay used to test the compounds of the present invention involves a readout called Cell Titer-Glow® Luminescent Cell Viability Assay developed by Promega® (Cunningham, B A “A Growing Issue: Cell Proliferation Assays, Modern kits ease quantification of cell growth” The Scientist 2001, 15(13), 26, and Crouch, S P et al., “The use of ATP bioluminescence as a measure of cell proliferation and cytotoxicity” Journal of Immunological Methods 1993, 160, 81-88), that measures inhibition of cell proliferation. Generation of a luminescent signal corresponds to the amount of ATP present, which is directly proportional to the number of metabolically active (proliferating) cells.
(§4) A431 cells [human epidermoid carcinoma, ATCC # […], overexpressing HER1 (EGFR, ErbB1)] and BT474 [human breast carcinoma, ATCC # CRL-1555, overexpressing HER2 (ErbB2)] were plated at a density of 2.5×10^3 cells/well in 96 well black-clear bottom tissue culture plates in RPMI media with 10% Fetal Bovine Serum and incubated at 37° C. Twenty-four hours later, test compounds are added at a final concentration range from as high 100 μm to as low 64 pM depend on the activities of the tested compounds in serial dilutions at a final DMSO concentration of 0.1%. Cells were incubated for 72 hours at 37° C. in complete growth media after addition of the test compound. After 72 hours of drug exposure, the plates were equilibrated to room temperature for approximately 30 min. Then, using a Promega Cell Titer Glo Luminescent® assay kit, lysis buffer containing 100 microliters of the enzyme luciferase and its substrate, luciferin mixture, was added to each well. The plates were mixed for 2 min on orbital shaker to ensure cell lysis and incubated for 10 min at room temperature to stabilize luminescence signal. The samples were read on VICTOR 2 using Luminescence protocol, and analyzed with Analyze5 software to generate IC50 values.

[2] = system: A431 cells [human epidermoid carcinoma, overexpressing HER1 (EGFR, ErbB1)]; experiment: In vitro tumor cell proliferation assay (Cell Titer-Glo luminescent cell viability), A431 cells; type: cell-based; details: A-431, 72 h, 72 hours of drug exposure, Cell Titer-Glo readout, read-out: IC50, anti-proliferative activity in A431 cells
Text: as §1, §2, §3, §4

IC50 [1] [µM]	IC50 [2] [µM]	SMILES
≤ 0.5	≤ 50	Fc1cccc(COc2ccc(Nc3ncnc4sc5cc(N6CCOCC6)ccc5c34)cc2Cl)c1 [Example 44, [3-Chloro-4-(3-fluoro-benzyloxy)-phenyl]-(7-morpholin-4-yl-benzo[4,5]thieno[2,3-d]pyrimidin-4-yl)-amine]
≤ 5	≤ 50	CCOC(=O)C(C(=O)OCC)c1ccc2c(c1)sc1ncnc(Nc3ccc(OCc4cccc(F)c4)c(Cl)c3)c12 [Example 45, 2-{4-[3-Chloro-4-(3-fluoro-benzyloxy)-phenylamino]-benzo[4,5]thieno[2,3-d]pyrimidin-7-yl}-malonic acid diethyl ester]
≤ 0.5	≤ 5	OCC(CO)c1ccc2c(c1)sc1ncnc(Nc3ccc(OCc4cccc(F)c4)c(Cl)c3)c12 [Example 46, 2-{4-[3-Chloro-4-(3-fluoro-benzyloxy)-phenylamino]-benzo[4,5]thieno[2,3-]pyrimidin-7-yl}-propane-1,3-diol]
≤ 5	≤ 5	COC(=O)/C=C/c1ccc2c(c1)sc1ncnc(Nc3ccc(OCc4cccc(F)c4)c(Cl)c3)c12 [Example 47, methyl (2E)-3-[4-({3-chloro-4-[(3-fluorobenzyl)oxy]phenyl}amino)[1]benzothieno[2,3-d]pyrimidin-7-yl]acrylate]
≤ 5	≤ 50	O=C(O)/C=C/c1ccc2c(c1)sc1ncnc(Nc3ccc(OCc4cccc(F)c4)c(Cl)c3)c12 [Example 48, (2E)-3-[4-({3-chloro-4-[(3-fluorobenzyl)oxy]phenyl}amino)[1]benzothieno[2,3-d]pyrimidin-7-yl]acrylic acid]
≤ 5	≤ 5	CCN1CCN(C(=O)/C=C/c2ccc3c(c2)sc2ncnc(Nc4ccc(OCc5cccc(F)c5)c(Cl)c4)c23)CC1 [Example 49, N-{3-chloro-4-[(3-fluorobenzyl)oxy]phenyl}-7-[(1E)-3-(4-ethylpiperazin-1-yl)-3-oxoprop-1-en-1-yl][1]benzothieno[2,3-d]pyrimidin-4-amine]
≤ 0.5	≤ 50	COCCNC(=O)/C=C/c1ccc2c(c1)sc1ncnc(Nc3ccc(OCc4cccc(F)c4)c(Cl)c3)c12 [Example 50, (2E)-3-[4-({3-chloro-4-[(3-fluorobenzyl)oxy]phenyl}amino) [1]benzothieno[2,3-d]pyrimidin-7-yl]-N-(2-methoxyethyl)acrylamide]
≤ 5	≤ 5	CN1CCN(C(=O)/C=C/c2ccc3c(c2)sc2ncnc(Nc4ccc(OCc5cccc(F)c5)c(Cl)c4)c23)CC1 [Example 51, N-{3-chloro-4-[(3-fluorobenzyl)oxy]phenyl}-7-[(1E)-3-(4-methylpiperazin-1-yl)-3-oxoprop-1-en-1-yl][1]benzothieno [2,3-d]pyrimidin-4-amine]
≤ 5	≤ 5	CN(C)[C@H]1CCN(C(=O)/C=C/c2ccc3c(c2)sc2ncnc(Nc4ccc(OCc5cccc(F)c5)c(Cl)c4)c23)C1 [Example 52, N-{3-chloro-4-[(3-fluorobenzyl)oxy]phenyl}-7-{(1E)-3-[(3S)-3-(dimethylamino)pyrrolidin-1-yl]-3-oxoprop-1-en-1-yl}[1]benzothieno[2,3-d] pyrimidin-4-amine]
≤ 5	≤ 50	CN(C)CCNC(=O)/C=C/c1ccc2c(c1)sc1ncnc(Nc3ccc(OCc4cccc(F)c4)c(Cl)c3)c12 [Example 54, (2E)-3-[4-({3-chloro-4-[(3-fluorobenzyl)oxy]phenyl}amino) [1]benzothieno[2,3-d]pyrimidin-7-yl]-N-[2-(dimethylamino)ethyl]acrylamide]
≤ 5	≤ 50	CCN1CCN(C(=O)C(O)C(O)c2ccc3c(c2)sc2ncnc(Nc4ccc(OCc5cccc(F)c5)c(Cl)c4)c23)CC1 (stereo not shown) [Example 56, 1-[4-({3-chloro-4-[(3-fluorobenzyl)oxy]phenyl}amino)[1]benzothieno[2,3-d]pyrimidin-7-yl]-3-(4-ethylpiperazin-1-yl)-3-oxopropane-1,2-diol]
≤ 5	≤ 50	CCN1CCN(C(=O)[C@H](O)[C@@H](O)c2ccc3c(c2)sc2ncnc(Nc4ccc(OCc5cccc(F)c5)c(Cl)c4)c23)CC1 [Example 57, (1S,2R)-1-[4-({3-chloro-4-[(3-fluorobenzyl)oxy]phenyl}amino) [1]benzothieno[2,3-d]pyrimidin-7-yl]-3-(4-ethylpiperazin-1-yl)-3-oxopropane-1,2-diol]
≤ 5	≤ 50	CCN1CCN(C(=O)[C@@H](O)[C@H](O)c2ccc3c(c2)sc2ncnc(Nc4ccc(OCc5cccc(F)c5)c(Cl)c4)c23)CC1 [Example 58, (1R,2S)-1-[4-({3-chloro-4-[(3-fluorobenzyl)oxy]phenyl}amino)[1]benzothieno[2,3-d]pyrimidin-7-yl]-3-(4-ethylpiperazin-1-yl)-3-oxopropane-1,2-diol]
≤ 5	≤ 50	CN(C)[C@H]1CCN(C(=O)C(O)C(O)c2ccc3c(c2)sc2ncnc(Nc4ccc(OCc5cccc(F)c5)c(Cl)c4)c23)C1 (stereo partly drawn) [Example 59, 1-[4-({3-chloro-4-[(3-fluorobenzyl)oxy]phenyl}amino) [1]benzothieno[2,3-d]pyrimidin-7-yl]-3-[(3S)-3-(dimethylamino)pyrrolidin-1-yl]-3-oxopropane-1,2-diol]
≤ 0.5	≤ 50	CS(=O)(=O)CCNC(=O)C(O)C(O)c1ccc2c(c1)sc1ncnc(Nc3ccc(OCc4cccc(F)c4)c(Cl)c3)c12 (stereo not shown) [Example 60, 3-[4-({3-chloro-4-[(3-fluorobenzyl)oxy]phenyl}amino) [1]benzothieno[2,3-d]pyrimidin-7-yl]-2,3-dihydroxy-N-[2-(methylsulfonyl)ethyl]propanamide]
≤ 0.5	≤ 50	OC/C=C/c1ccc2c(c1)sc1ncnc(Nc3ccc(OCc4cccc(F)c4)c(Cl)c3)c12 [Example 61, (2E)-3-[4-({3-chloro-4-[(3-fluorobenzyl)oxy]phenyl}amino)[1]benzothieno[2,3-d]pyrimidin-7-yl]prop-2-en-1-ol]
≤ 0.5	≤ 5	OCC(O)C(O)c1ccc2c(c1)sc1ncnc(Nc3ccc(OCc4cccc(F)c4)c(Cl)c3)c12 (stereo not shown) [Example 62, 1-[4-({3-chloro-4-[(3-fluorobenzyl)oxy]phenyl}amino)[1]benzothieno[2,3-d]pyrimidin-7-yl]propane-1,2,3-triol]
≤ 0.5	≤ 5	OC[C@H](O)[C@@H](O)c1ccc2c(c1)sc1ncnc(Nc3ccc(OCc4cccc(F)c4)c(Cl)c3)c12 [Example 63, (1S,2S)-1-[4-({3-chloro-4-[(3-fluorobenzyl)oxy]phenyl}amino) [1]benzothieno[2,3-d]pyrimidin-7-yl]propane-1,2,3-triol]
≤ 0.5	≤ 5	OC[C@@H](O)[C@H](O)c1ccc2c(c1)sc1ncnc(Nc3ccc(OCc4cccc(F)c4)c(Cl)c3)c12 [Example 64, (1R,2R)-1-[4-({3-chloro-4-[(3-fluorobenzyl)oxy]phenyl}amino)[1]benzothieno[2,3-d]pyrimidin-7-yl]propane-1,2,3-triol]
≤ 5	≤ 50	O=C(O)CCc1ccc2c(c1)sc1ncnc(Nc3ccc(OCc4cccc(F)c4)c(Cl)c3)c12 [Example 65, 3-[4-({3-chloro-4-[(3-fluorobenzyl)oxy]phenyl}amino)[1]benzothieno[2,3-d]pyrimidin-7-yl]propanoic acid]
≤ 5	≤ 50	CN1CCN(C(=O)CCc2ccc3c(c2)sc2ncnc(Nc4ccc(OCc5cccc(F)c5)c(Cl)c4)c23)CC1 [Example 66, N-{3-chloro-4-[(3-fluorobenzyl)oxy]phenyl}-7-[3-(4-methylpiperazin-1-yl)-3-oxopropyl][1]benzothieno[2,3-d]pyrimidin-4-amine]
≤ 5	≤ 50	CCN1CCN(C(=O)CCc2ccc3c(c2)sc2ncnc(Nc4ccc(OCc5cccc(F)c5)c(Cl)c4)c23)CC1 [Example 67, N-{3-chloro-4-[(3-fluorobenzyl)oxy]phenyl}-7-[3-(4-ethylpiperazin-1-yl)-3-oxopropyl][1]benzothieno[2,3-d] pyrimidin-4-amine]
≤ 5	≤ 5	CN(C)[C@H]1CCN(C(=O)CCc2ccc3c(c2)sc2ncnc(Nc4ccc(OCc5cccc(F)c5)c(Cl)c4)c23)C1 [Example 68, N-{3-chloro-4-[(3-fluorobenzyl)oxy]phenyl}-7-{3-[(3S)-3-(dimethylamino)pyrrolidin-1-yl]-3-oxopropyl} [1]benzothieno[2,3-d]pyrimidin-4-amine]
